Measurements taken from patent US10913773B2, “Bicyclic peptidyl inhibitor of tumor necrosis factor-alpha” (Ohio State Innovation Foundation, priority 2016, dated 2021).

Tests used:
TNFα-TNFR1 interaction = biological target: T1, TNFα-TNFR1 interaction (Homo sapiens, UniProt P01375); assay: ELISA inhibition of TNFα-TNFR1 interaction (immobilized biotinylated TNFα, TNFR1-HRP); type: binding
T1 construct: made in house; host or cells: Escherichia coli (TNFα)

TNFα [1] = biological target: T2, TNFα (Homo sapiens, UniProt P01375); assay: FA-based competition with FITC-labeled C1 for binding to TNFα; details: 2 μM TNFα, 100 nM C1-NNNK(FITC), 0-15 μM competitor
T2 construct: ybbR tag (13 aa) (N); made in house; host or cells: Escherichia coli
Description: (§1) FIG. 6A is a graph showing the competition for binding to TNFα (2 μM) between C1-74-2 (0-15 μM) and C1-NNNK(FITC) (100 nM) as monitored by FA. FIG. 6B is a graph showing binding of infliximab-HRP conjugate to immobilized TNFα in the absence and presence of C1-74-2 (0, 2, or 6 μM).
(§2) [formula] where Y is the measured anisotropy at a given TNFα concentration x; L is the bicyclic peptide concentration; Qb/Qf is the correction fact for dye-protein interaction; Amax is the maximum anisotropy when all the peptides are bound to TNFα, while Amin is the minimum anisotropy. Competition experiments were performed by incubating 100 nM Asn-Asn-Asn-Lys(FITC)-labeled anticachexin C1 (Table 1), 2 μM of TNFα, and varying concentrations of unlabeled competitor peptide (0-20 μM) in the above buffer for 2 h. The FA values were plotted against the competitor peptide concentration to determine the IC50 values.
Target sequence in this assay (P01375 77-233 limits assumed): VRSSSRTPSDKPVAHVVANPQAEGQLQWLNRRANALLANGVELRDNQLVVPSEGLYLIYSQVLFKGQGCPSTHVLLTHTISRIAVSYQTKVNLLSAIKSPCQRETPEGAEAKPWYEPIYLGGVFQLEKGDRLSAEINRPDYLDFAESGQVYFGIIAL

TNFα [2] = biological target: T2, TNFα; assay: Fluorescence anisotropy (FA) binding of fluorescently labeled bicyclic peptides to TNFα; details: labeled at free N-terminal amine with 6-carboxyfluorescein
Description: FITC-labeled bicyclic peptide (50 or 100 nM) were incubated with varying concentrations of TNFα (0-5 μM) in 30 mM HEPES, pH 7.4, 150 mM NaCl, and 2 mM magnesium acetate for 2 h. The FA values were measured on a Molecular Devices Spectramax M5 spectrofluorimeter, with excitation and emission wavelengths at 485 and 525 nm, respectively. Equilibrium dissociation constants (KD) were determined by plotting the FA values as a function of TNFα concentration and fitting the data to the following equation
as §2
To identify residues significant for TNFα binding, each residue of anticachexin C1 (other than D-alanine at position-3, L-lysine at position-4, and L-2,3-diaminopropionic acid (Dap) at position-10) was individually replaced with an alanine (or D-alanine). To facilitate binding analysis by fluorescence anisotropy (FA), a tetrapeptide NNNK (SEQ ID NO: 1) was added to the C-terminus of each bicyclic peptide and the lysine side chain was labeled with fluorescein isothiocyanate (FITC) during solid-phase synthesis (Scheme 1). The three asparagine residues were added to improve the aqueous solubility of the bicyclic peptides. The bicyclic peptide was prepared by first synthesizing the full-length linear sequence on Rink amide resin using standard Fmoc/HBTU chemistry. The side chains of the two internal cyclization residues, L-lysine and Dap, were protected with monomethoxytrityl (Mmt) groups, whereas the C-terminal lysine was protected with an allyloxycarbonyl (Alloc) group. After removal of the N-terminal Fmoc group, a trimesic acid was coupled to the N-terminal amine using HBTU as the coupling agent. Next, the Mmt groups were selectively removed from the Lys and Dap side chains by 2% TFA and the peptide was cyclized by treatment with (benzotriazol-1-yloxy)tripyrrolidinophosphonium hexafluorophosphate (PyBOP). The Alloc group on the C-terminal lysine side chain was removed by treatment with Pd(PPh3)4 and the bicyclic peptide was selectively labeled at the C-terminal lysine by treating the resin with FITC. […] On the other hand, phenylglycine (Phg)-1 and glycine-7 play more minor roles in binding.

[3] = biological target: T3, TNFα (infliximab binding) (Homo sapiens, UniProt P01375); assay: Binding of infliximab-HRP conjugate to immobilized TNFα; details: 0, 2 or 6 μM peptide
T3 construct: ybbR tag (13 aa) (N); made in house; host or cells: Escherichia coli
Description: as §1
The four peptides were tested for inhibition of the TNFα-TNFR1 interaction by using the ELISA assay.

T3 sequence (P01375 77-233 limits assumed): as above

Q: How did the IC50 (TNFα-TNFR1 interaction; inhibition of TNFα-TNFR1 interaction, unlabeled peptides) turn out when `CC(=O)[C@@H]1CCCN(C(=O)[C@@H](Cc2c[nH]cn2)NC(=O)C(N)C(C)C)C1` (some centres unmarked) [Compound C1-74-2] was run?
A: 12 ± 2 nM

Q: And the “Improvement of IC50 over C1-74 (fold)” value (TNFα-TNFR1 interaction; relative to C1-74)?
A: ~6 fold

Q: What about the “Competition with FITC-labeled C1 for binding to TNFα” value (TNFα [1]) of the same molecule?
A: competed with FITC-labeled C1 for binding to TNFα

Q: And the Kd (TNFα [2])?
A: 40 ± 7 nM

Q: And the “Inhibition of infliximab binding to surface-immobilized TNFα” value [3]?
A: inhibited the binding of anti-TNFα antibody infliximab to a surface-immobilized TNFα in a concentration-dependent manner
